Key:
[1] = molecular target: T1, Arabidopsis recombinant CAT2 protein (Arabidopsis thaliana, UniProt P25819); test: H2O2 disappearance at […] nm; type: biochemical; conditions: 30 min preincubation at 25 °C; covalent (nitroalkylation of His); NO2-Ln concentration not given; MeOH vehicle control; regioisomer not defined
T1 construct: commercial recombinant protein (LSBio, Life Span BioSciences); heme enzyme
T1 sequence (P25819 1-492): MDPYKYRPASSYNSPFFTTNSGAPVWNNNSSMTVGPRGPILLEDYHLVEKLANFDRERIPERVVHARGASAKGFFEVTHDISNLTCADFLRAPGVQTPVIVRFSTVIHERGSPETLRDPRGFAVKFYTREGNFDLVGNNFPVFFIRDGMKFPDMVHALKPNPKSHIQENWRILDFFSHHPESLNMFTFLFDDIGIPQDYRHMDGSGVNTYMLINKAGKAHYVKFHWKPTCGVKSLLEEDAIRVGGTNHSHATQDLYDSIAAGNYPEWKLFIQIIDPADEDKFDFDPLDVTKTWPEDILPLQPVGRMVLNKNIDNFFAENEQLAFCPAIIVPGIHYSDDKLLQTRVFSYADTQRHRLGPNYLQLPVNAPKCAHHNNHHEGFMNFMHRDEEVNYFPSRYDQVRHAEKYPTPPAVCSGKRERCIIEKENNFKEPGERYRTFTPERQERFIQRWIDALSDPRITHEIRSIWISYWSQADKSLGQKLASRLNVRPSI

CAT from bovine liver = molecular target: T2, CAT from bovine liver (Bos taurus, UniProt P00432); test: H2O2 disappearance at […] nm; type: biochemical; conditions: 30 min preincubation at 25 °C; NO2-Ln concentration not given; MeOH vehicle control; regioisomer not defined
T2 construct: commercial bovine liver catalase (Sigma)
T2 sequence (P00432 2-527): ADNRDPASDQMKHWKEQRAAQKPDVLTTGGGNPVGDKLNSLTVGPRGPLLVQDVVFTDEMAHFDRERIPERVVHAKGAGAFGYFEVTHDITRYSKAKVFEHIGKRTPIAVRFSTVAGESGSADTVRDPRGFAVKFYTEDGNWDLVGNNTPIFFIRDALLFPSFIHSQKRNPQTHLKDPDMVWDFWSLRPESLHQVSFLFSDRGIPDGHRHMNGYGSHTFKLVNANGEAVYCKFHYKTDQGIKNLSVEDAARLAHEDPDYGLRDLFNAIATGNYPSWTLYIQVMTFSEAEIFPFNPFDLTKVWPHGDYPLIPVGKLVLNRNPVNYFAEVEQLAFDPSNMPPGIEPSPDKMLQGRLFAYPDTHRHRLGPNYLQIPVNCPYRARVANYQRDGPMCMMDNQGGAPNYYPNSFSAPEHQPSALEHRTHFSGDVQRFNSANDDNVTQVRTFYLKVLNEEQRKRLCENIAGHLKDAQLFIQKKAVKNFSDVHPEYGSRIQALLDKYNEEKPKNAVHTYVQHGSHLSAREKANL

- % inhibition [1]: 36%
- % inhibition (CAT from bovine liver): 60%
Substance: NO2-Ln

Reference: PMC11862108, “Nitro‐fatty acids‐mediated nitroalkylation modulates fine‐tuning catalase antioxidant function during salinity stress in plants” (Protein Science : A Publication of the Protein Society, 2025)
